Tests used:
[1] = target: Cyclin-dependent kinase 2 (Homo sapiens, UniProt P24941); assay: Binding affinity to CDK2 (unknown origin)
MCF7 [2] = assay: Antiproliferative activity against human MCF7 cells by CCK-8 assay; format: functional, cell-based
MCF7 [3] = assay: Antiproliferative activity against human MCF7 cells at 4 uM by CCK-8 assay; format: functional

Row | Compound | Ki [1] | IC50 (MCF7 [2]) | inhibition at 4 µM (MCF7 [3])
1 | CC(C)(C)n1nc(-c2cccc(NC(=O)/C(C#N)=C/C=C/c3ccccc3)c2)c2c(=O)[nH]cnc21 | 6.25 µM | – | –
2 | CCCC/C=C(\C#N)C(=O)Nc1cccc(-c2nn(C(C)(C)C)c3nc[nH]c(=O)c23)c1 | 11.6 µM | – | –
3 | CC(C)(C)n1nc(-c2cccc(NC(=O)/C(C#N)=C/c3ccc([N+](=O)[O-])cc3)c2)c2c(=O)[nH]cnc21 | 1.95 µM | – | –
4 | CC(C)(C)/C=C(\C#N)C(=O)Nc1cccc(-c2nn(C(C)(C)C)c3nc[nH]c(=O)c23)c1 | 2.57 µM | – | –
5 | CC(C)(C)n1nc(-c2cccc(NC(=O)/C(C#N)=C/c3ccccc3[N+](=O)[O-])c2)c2c(=O)[nH]cnc21 | 12.3 µM | – | –
6 | CC(C)(C)n1nc(-c2cccc(NC(=O)/C(C#N)=C/c3cc([N+](=O)[O-])cc([N+](=O)[O-])c3)c2)c2c(=O)[nH]cnc21 | 1.64 µM | – | –
7 | COc1ccc(/C=C(\C#N)C(=O)Nc2cccc(-c3nn(C(C)(C)C)c4nc[nH]c(=O)c34)c2)cc1 | 9.7 µM | – | –
8 | CC(C)(C)n1nc(-c2cccc(NC(=O)/C(C#N)=C/c3ccc(C(=O)O)cc3)c2)c2c(=O)[nH]cnc21 | 1.4 µM | – | –
9 | Cc1cc(NS(=O)(=O)c2ccc(Nc3n[nH]c4nc[nH]c(=O)c34)cc2)no1 | 4.84 µM | – | –
10 | COc1cc([C@@H]2c3cc4c(cc3[C@@H](O[C@@H]3O[C@@H]5CO[C@@H](C)O[C@H]5[C@H](O)[C@H]3O)[C@H]3COC(=O)[C@H]23)OCO4)cc(OC)c1O [ETOPOSIDE] | – | 18.8 µM | –

More lines, main results first:

Row | Ki [1] | Compound | IC50 (MCF7 [2]) | inhibition at 4 µM (MCF7 [3])
11 | 2.87 µM | CC(C)(C)n1nc(-c2cccc(NC(=O)/C(C#N)=C/c3ccc(F)cc3)c2)c2c(=O)[nH]cnc21 | – | –
12 | 1.31 µM | CC(C)(C)n1nc(-c2cccc(NC(=O)/C(C#N)=C/c3ccccc3Br)c2)c2c(=O)[nH]cnc21 | – | –
13 | 2.2 µM | CC(C)(C)n1nc(-c2cccc(NC(=O)/C(C#N)=C/c3ccccc3)c2)c2c(=O)[nH]cnc21 | 21.7 µM | 30%
14 | 2.46 µM | CC(C)(C)n1nc(-c2cccc(NC(=O)/C(C#N)=C/c3cccc([N+](=O)[O-])c3)c2)c2c(=O)[nH]cnc21 | – | –
15 | 0.52 µM | CC(C)(C)n1nc(-c2cccc(NC(=O)/C(C#N)=C/c3ccc(O)cc3)c2)c2c(=O)[nH]cnc21 | – | –
16 | 5.59 µM | CC(C)(C)n1nc(-c2cccc(NC(=O)/C(C#N)=C/c3cccc(C(F)(F)F)c3)c2)c2c(=O)[nH]cnc21 | – | –
17 | 14.7 µM | CC(C)(C)n1nc(-c2cccc(NC(=O)/C(C#N)=C/c3cccc(Br)c3)c2)c2c(=O)[nH]cnc21 | – | –
18 | 3.63 µM | CC(C)(C)n1nc(-c2cccc(NC(=O)/C(C#N)=C/c3ccc(Br)cc3)c2)c2c(=O)[nH]cnc21 | – | –
19 | 3.1 µM | CC(C)(C)n1nc(-c2cccc(NC(=O)/C(C#N)=C/c3cccc(Cl)c3)c2)c2c(=O)[nH]cnc21 | – | –
20 | 0.35 µM | CC(C)(C)n1nc(-c2cccc(NC(=O)/C(C#N)=C/c3ccccc3O)c2)c2c(=O)[nH]cnc21 | – | –

Reference: ChEMBL document CHEMBL5126571, “Development of pyrazolo[3,4-d]pyrimidin-4-one scaffold as novel CDK2 inhibitors: Design, synthesis, and biological evaluation” (Bioorg Med Chem Lett, 2022)
